Results published in USRE38551E1, “Anticonvulsant enantiomeric amino acid derivatives” (priority 1996, dated 2004).
Where two headings read alike, the source gives them in different places. Marks after values point to notes of the source that are not given here.

Assays:
[1] = tested on: Crl:CD BR Charles River rats
Description: II. Five groups of Crl:CD® BR Charles River rats were each exposed to BAMP or a control substance (0.5% methylcellulose [400 Cps] aqueous solution in distilled water) according to the following dosage schedule:
Group 1—vehicle control (10 males, 10 females), 0 mg/kg/day
Group 2—low (10 males, 10 females), 10 mg/kg/day
Group 3—mid low (10 males, 10 females), 30 mg/kg/day
Group 4—mid high (10 males, 10 females), 100 mg/kg/day
Group 5—high (10 males, 10 females), 300 mg/kg/day
Exposure was by oral gavage, once daily, for a period of at least 30 consecutive days, after which all animals were sacrificed for pathologic evaluation.
All animals were weighed once prior to initiation of dosing and weekly thereafter. Food-fasted (overnight) blood samples for clinical chemistry and hematology were collected at termination. Blood samples were collected from the orbital venous plexus using carbon dioxide (mixed with oxygen) as an anesthetic.
All animals were sacrificed, at the appropriate time, by exsanguination, under barbiturate anesthesia, and all were subjected to a necropsy examination.
Clinical observations were reviewed at necropsy, and all grossly observed abnormalities were entered directly into the computerized data collection system. Adrenals, brain with brainstem, heart, kidneys, liver, ovaries, pituitary, testes with epididymides, and thyroid with parathyroids were weighted from each animal. The pituitary and thyroid with parathyroids were weighed after fixation and all of the other organs were weighed at the time of necropsy.
As required by the protocol, histologic evaluations were conducted on liver only from all animals of Groups 1 (control) and 5 (high). All histologic findings were entered directly into the computerized data capture system. Lesions were graded as to relative severity or degree of involvement (1=minimal, 2=slight, 3=moderate, 4=moderately severe, 5=severe). In general, minimal represents the least consistently recognizable degree of any given histoniorphologic alteration, while severe would represent the most extreme degree reasonably possible, with the other three grades occupying a continuum between the two extremes. The grades are subjective, comparative evaluations, based on morphology alone and are not intended by themselves to imply any degree of functional impairment.

motor impairment = motor impairment (ataxia, gait, stance) observation, rats (po); assay type: in vivo
Excerpt: Compounds were screened for anticonvulsant activity in both male albino Carthworth Farms No. 1 mice (ip route) and male albino Sprague Dawley rats [oral (po) route]. Activity was established using the electrical (maximal electroshock or MES) test. In the MES test, a drop of electrolyte solution with anesthetic (0.5% butacaine hemisulfate in 0.9% sodium chloride) was used in the eyes of the animals prior to positioning the corneal electrodes and delivery of current. A 60 cycle alternating current was administered for 0.2 sec. in both species, 50 mA in mice and 150 mA in rats. Protection endpoints were defined as the abolition of the hind limb tonic extensor component of the induced seizure. In mice, effects of compounds on forced spontaneous motor activity were determined using the rotorod test. […] Normally under these conditions, mice maintain their balance almost indefinitely. In rats, motor impairment is assessed by observing for overt evidence of ataxia, abnormal gait and stance, and/or loss of placing response and muscle tone. In the mouse identification screening study all compounds were given at three dose levels (30, 100, 300 mg/kg) and two time periods (0.5 hours, 4 hours). Typically, in the MES seizures test one animal was tested at 30 mg/kg and 300 mg/kg, and three animals at 100 mg/kg. In the rotored toxicity test four animals were tested at 30 mg/kg, and 300 mg/kg, and eight animals at 100 mg/kg.
The quantitative determination of the median effective (ED50) and toxic doses (TD50) was conducted at previously calculated times of peak effect. Groups of at least eight animals were tested using different doses of test compound until at least two points wee determined between 100 and 0% protection and minimal motor impairment. The dose of candidate substance required to produce the defined end-point in 50% of the animals in each test and the 95% confidence interval was calculated.

[2] = female, group 2, 10 mg/kg/day, 30 days oral
[3] = female, group 3, 30 mg/kg/day, 30 days oral
[4] = female, group 4, 100 mg/kg/day × 30 days oral
[5] = female, group 4, 100 mg/kg/day, 30 days oral
[6] = female, group 5, 300 mg/kg/day × 30 days oral
[7] = female, group 5, 300 mg/kg/day, 30 days oral
[8] = male, group 2, 10 mg/kg/day, 30 days oral
[9] = male, group 3, 30 mg/kg/day, 30 days oral
[10] = male, group 4, 100 mg/kg/day × 30 days oral
[11] = male, group 4, 100 mg/kg/day, 30 days oral
[12] = male, group 5, 300 mg/kg/day × 30 days oral
[13] = male, group 5, 300 mg/kg/day, 30 days oral

COC[C@@H](NC(C)=O)C(=O)NCc1ccccc1 [Ex. 1, 2, (R)-N-Benzyl-2-Acetamide-3-methoxypropionamide]
10: ESOPHAGUS (ES) NOT REMARKABLE (number of animals) [1, 2] | HEART (HT) NOT REMARKABLE (number of animals) [1, 2] | LIVER (LI) NOT REMARKABLE (number of animals) [1, 2] | LUNG (LU) NOT REMARKABLE (number of animals) [1, 2] | PARATHYROID (PT) NOT REMARKABLE (number of animals) [1, 2] | SPLEEN (SP) NOT REMARKABLE (number of animals) [1, 2] | TRACHEA (TR) NOT REMARKABLE (number of animals) [1, 2] | ESOPHAGUS (ES) NOT REMARKABLE (number of animals) [1, 3] | HEART (HT) NOT REMARKABLE (number of animals) [1, 3] | LIVER (LI) NOT REMARKABLE (number of animals) [1, 3] | LUNG (LU) NOT REMARKABLE (number of animals) [1, 3] | PARATHYROID (PT) NOT REMARKABLE (number of animals) [1, 3] | SPLEEN (SP) NOT REMARKABLE (number of animals) [1, 3] | TRACHEA (TR) NOT REMARKABLE (number of animals) [1, 3] | ESOPHAGUS (ES) NOT REMARKABLE (number of animals) [1, 5] | HEART (HT) NOT REMARKABLE (number of animals) [1, 5] | LIVER (LI) NOT REMARKABLE (number of animals) [1, 5] | LUNG (LU) NOT REMARKABLE (number of animals) [1, 5] | PARATHYROID (PT) NOT REMARKABLE (number of animals) [1, 5] | SPLEEN (SP) NOT REMARKABLE (number of animals) [1, 5] | TRACHEA (TR) NOT REMARKABLE (number of animals) [1, 5] | ESOPHAGUS (ES) NOT REMARKABLE (number of animals) [1, 7] | HEART (HT) NOT REMARKABLE (number of animals) [1, 7] | LIVER (LI) NOT REMARKABLE (number of animals) [1, 7] | LUNG (LU) NOT REMARKABLE (number of animals) [1, 7] | PARATHYROID (PT) NOT REMARKABLE (number of animals) [1, 7] | SPLEEN (SP) NOT REMARKABLE (number of animals) [1, 7] | TRACHEA (TR) NOT REMARKABLE (number of animals) [1, 7] | ESOPHAGUS (ES) NOT REMARKABLE (number of animals) [1, 8] | HEART (HT) NOT REMARKABLE (number of animals) [1, 8] | LIVER (LI) NOT REMARKABLE (number of animals) [1, 8] | LUNG (LU) NOT REMARKABLE (number of animals) [1, 8] | PARATHYROID (PT) NOT REMARKABLE (number of animals) [1, 8] | SPLEEN (SP) NOT REMARKABLE (number of animals) [1, 8] | TRACHEA (TR) NOT REMARKABLE (number of animals) [1, 8] | ESOPHAGUS (ES) NOT REMARKABLE (number of animals) [1, 9] | HEART (HT) NOT REMARKABLE (number of animals) [1, 9] | LIVER (LI) NOT REMARKABLE (number of animals) [1, 9] | LUNG (LU) NOT REMARKABLE (number of animals) [1, 9] | PARATHYROID (PT) NOT REMARKABLE (number of animals) [1, 9] | SPLEEN (SP) NOT REMARKABLE (number of animals) [1, 9] | TRACHEA (TR) NOT REMARKABLE (number of animals) [1, 9] | ESOPHAGUS (ES) NOT REMARKABLE (number of animals) [1, 11] | HEART (HT) NOT REMARKABLE (number of animals) [1, 11] | LIVER (LI) NOT REMARKABLE (number of animals) [1, 11] | LUNG (LU) NOT REMARKABLE (number of animals) [1, 11] | PARATHYROID (PT) NOT REMARKABLE (number of animals) [1, 11] | SPLEEN (SP) NOT REMARKABLE (number of animals) [1, 11] | TRACHEA (TR) NOT REMARKABLE (number of animals) [1, 11] | ESOPHAGUS (ES) NOT REMARKABLE (number of animals) [1, 13] | HEART (HT) NOT REMARKABLE (number of animals) [1, 13] | LUNG (LU) NOT REMARKABLE (number of animals) [1, 13] | PARATHYROID (PT) NOT REMARKABLE (number of animals) [1, 13] | SPLEEN (SP) NOT REMARKABLE (number of animals) [1, 13] | TRACHEA (TR) NOT REMARKABLE (number of animals) [1, 13]
3.244%: LIVER ORGAN-TO-BODY WT, mean [1, 3]
>500 mg/kg: RAT ED50 Neurotox (motor impairment; oral (Table 6))
3.278%: LIVER ORGAN-TO-BODY WT, mean [1, 9]
218.3 g: TERMINAL BODY WT, mean [1, 4]
>500 [0.5] mg/kg: tox, TD50 (motor impairment; rat, po, at time of peak effect)
3.248%: LIVER ORGAN-TO-BODY WT, mean [1, 8]
1: LIVER (LI) ENLARGED (number of animals affected) [1, 13]
205.9 g: TERMINAL BODY WT, mean [1, 6]
3.237%: LIVER ORGAN-TO-BODY WT, mean [1, 2]
214.1 g: TERMINAL BODY WT, mean [1, 2]
349.9 g: TERMINAL BODY WT, mean [1, 9]
3.832* %: LIVER ORGAN-TO-BODY WT, mean [1, 6]
76.9: multiple of anti-convulsant dose causing no adverse histologic effects ([1]; rats, 30 days chronic dosing)
0: HEART (HT) ENLARGED (number of animals affected) [1, 2] | LIVER (LI) ENLARGED (number of animals affected) [1, 2] | HEART (HT) ENLARGED (number of animals affected) [1, 3] | LIVER (LI) ENLARGED (number of animals affected) [1, 3] | HEART (HT) ENLARGED (number of animals affected) [1, 5] | LIVER (LI) ENLARGED (number of animals affected) [1, 5] | HEART (HT) ENLARGED (number of animals affected) [1, 7] | LIVER (LI) ENLARGED (number of animals affected) [1, 7] | HEART (HT) ENLARGED (number of animals affected) [1, 8] | LIVER (LI) ENLARGED (number of animals affected) [1, 8] | HEART (HT) ENLARGED (number of animals affected) [1, 9] | LIVER (LI) ENLARGED (number of animals affected) [1, 9] | HEART (HT) ENLARGED (number of animals affected) [1, 11] | LIVER (LI) ENLARGED (number of animals affected) [1, 11] | HEART (HT) ENLARGED (number of animals affected) [1, 13]
207.0 g: TERMINAL BODY WT, mean [1, 3]
3.608%: LIVER ORGAN-TO-BODY WT, mean [1, 4]
358.8 g: TERMINAL BODY WT, mean [1, 12]
342.0 g: TERMINAL BODY WT, mean [1, 8]
351.5 g: TERMINAL BODY WT, mean [1, 10]
3.351%: LIVER ORGAN-TO-BODY WT, mean [1, 10]
4.016* %: LIVER ORGAN-TO-BODY WT, mean [1, 12]
9: LIVER (LI) NOT REMARKABLE (number of animals) [1, 13]
